ChEMBL document CHEMBL1201862, “PubChem BioAssay data set” (2004)
Calls of active or inactive are those of the source.

Experiments:
[1] = molecular target: Eukaryotic translation initiation factor 4E (Mus musculus, UniProt P63073); test: blockers of eIF4G binding by eIF4E – biochemical, TR-FRET, dose response (AID 855); format: functional;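 further: potency for disrupting eIF4E binding to eIF4GI seen as loss of FRET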
[2] = molecular target: T1, Carboxy-terminal domain RNA polymerase II polypeptide A small phosphatase 1 (Homo sapiens, UniProt Q9GZU7); test: CTDSP1 inhibitors, concentration-response, biochemical, absorbance readout, ultra-high-throughput screen actives (AID 540297); format: functional
T1 sequence (Q9GZU7 whole entry): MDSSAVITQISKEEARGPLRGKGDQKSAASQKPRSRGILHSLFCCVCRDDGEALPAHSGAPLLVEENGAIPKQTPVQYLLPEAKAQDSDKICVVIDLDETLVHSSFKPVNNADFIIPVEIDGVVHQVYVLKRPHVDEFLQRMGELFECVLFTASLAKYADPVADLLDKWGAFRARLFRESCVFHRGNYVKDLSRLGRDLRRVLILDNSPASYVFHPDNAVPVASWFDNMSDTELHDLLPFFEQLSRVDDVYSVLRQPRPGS

Prothrombin = Prothrombin (Homo sapiens, UniProt P00734); test: Thrombin 1536 HTS Dose Response Confirmation. [Related pubchem assays: 1046 (Thrombin 1536 HTS; hits were confirmed in this assay)]; format: functional
[3] = molecular target: Potassium voltage-gated channel subfamily KQT member 2 (Rattus norvegicus, UniProt O88943); test: potentiation of rat KCNQ2 current – cell-based, retigabine-insensitive compounds, dose response (AID 2654); format: functional
Sequence of Potassium voltage-gated channel subfamily KQT member 2 (O88943 whole entry): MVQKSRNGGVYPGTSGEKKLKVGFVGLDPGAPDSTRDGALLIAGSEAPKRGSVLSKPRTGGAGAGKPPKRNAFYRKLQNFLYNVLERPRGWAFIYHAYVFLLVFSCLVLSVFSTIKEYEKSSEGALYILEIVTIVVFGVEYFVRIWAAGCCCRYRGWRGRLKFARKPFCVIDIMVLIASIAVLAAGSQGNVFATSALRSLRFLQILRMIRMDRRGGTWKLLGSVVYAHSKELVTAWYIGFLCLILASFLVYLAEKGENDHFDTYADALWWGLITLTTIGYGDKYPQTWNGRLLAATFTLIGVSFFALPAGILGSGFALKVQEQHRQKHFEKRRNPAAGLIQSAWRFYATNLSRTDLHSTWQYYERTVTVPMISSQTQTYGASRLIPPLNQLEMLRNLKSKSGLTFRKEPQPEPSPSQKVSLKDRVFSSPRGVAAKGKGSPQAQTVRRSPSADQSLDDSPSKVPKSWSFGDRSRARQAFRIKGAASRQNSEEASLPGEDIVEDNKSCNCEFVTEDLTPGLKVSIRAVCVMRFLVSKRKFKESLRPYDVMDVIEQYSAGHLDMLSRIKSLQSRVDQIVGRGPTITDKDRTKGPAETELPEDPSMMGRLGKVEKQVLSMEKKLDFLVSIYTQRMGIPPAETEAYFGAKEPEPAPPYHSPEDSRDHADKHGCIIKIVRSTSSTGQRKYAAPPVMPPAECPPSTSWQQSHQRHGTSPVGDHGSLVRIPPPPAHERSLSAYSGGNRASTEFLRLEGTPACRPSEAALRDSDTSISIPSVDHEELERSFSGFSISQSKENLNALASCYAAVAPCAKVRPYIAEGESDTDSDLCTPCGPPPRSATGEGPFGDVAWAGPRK

Cytochrome P450 2D6 = Cytochrome P450 2D6 (Homo sapiens, UniProt P10635);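 further: CYP2D6 member of a cytochrome P450 panel assay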
Sequence of Cytochrome P450 2D6 (P10635 whole entry): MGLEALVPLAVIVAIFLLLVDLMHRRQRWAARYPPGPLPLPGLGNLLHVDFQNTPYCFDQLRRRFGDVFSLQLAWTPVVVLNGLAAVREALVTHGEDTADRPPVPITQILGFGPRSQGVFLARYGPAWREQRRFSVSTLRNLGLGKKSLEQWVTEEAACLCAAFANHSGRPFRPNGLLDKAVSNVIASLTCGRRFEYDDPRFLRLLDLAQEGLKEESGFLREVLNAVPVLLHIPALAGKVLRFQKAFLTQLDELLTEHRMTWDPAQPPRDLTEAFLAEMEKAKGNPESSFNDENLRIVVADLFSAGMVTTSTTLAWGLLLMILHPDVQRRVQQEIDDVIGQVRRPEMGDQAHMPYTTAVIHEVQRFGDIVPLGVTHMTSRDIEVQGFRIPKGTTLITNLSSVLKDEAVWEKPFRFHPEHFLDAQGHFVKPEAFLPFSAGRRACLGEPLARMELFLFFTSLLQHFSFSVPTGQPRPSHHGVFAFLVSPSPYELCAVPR

[4] = Luminescence-based dose response cell-based high throughput screening assay for cytotoxic compounds using the IEC-6 intestinal epithelial cell line. [Related pubchem assays: 1858 (Summary AID.), 1825 (Counterscreen.), 1907 (Confirmation screen.)]; format: functional
[5] = rise of 2N DNA cells, HeLa – IC50, dose response (AID 1117349); format: functional, cell-based
[6] = rise of 4N DNA cells, HeLa – IC50, dose response (AID 1117351); format: functional, cell-based
Hexokinase HKDC1 = molecular target: T2, Hexokinase HKDC1 (Homo sapiens, UniProt Q2TB90); test: inhibition of HKDC1 glucose phosphorylation – biochemical, W721R variant, dose response (AID 504729); format: functional
T2 sequence (Q2TB90 whole entry): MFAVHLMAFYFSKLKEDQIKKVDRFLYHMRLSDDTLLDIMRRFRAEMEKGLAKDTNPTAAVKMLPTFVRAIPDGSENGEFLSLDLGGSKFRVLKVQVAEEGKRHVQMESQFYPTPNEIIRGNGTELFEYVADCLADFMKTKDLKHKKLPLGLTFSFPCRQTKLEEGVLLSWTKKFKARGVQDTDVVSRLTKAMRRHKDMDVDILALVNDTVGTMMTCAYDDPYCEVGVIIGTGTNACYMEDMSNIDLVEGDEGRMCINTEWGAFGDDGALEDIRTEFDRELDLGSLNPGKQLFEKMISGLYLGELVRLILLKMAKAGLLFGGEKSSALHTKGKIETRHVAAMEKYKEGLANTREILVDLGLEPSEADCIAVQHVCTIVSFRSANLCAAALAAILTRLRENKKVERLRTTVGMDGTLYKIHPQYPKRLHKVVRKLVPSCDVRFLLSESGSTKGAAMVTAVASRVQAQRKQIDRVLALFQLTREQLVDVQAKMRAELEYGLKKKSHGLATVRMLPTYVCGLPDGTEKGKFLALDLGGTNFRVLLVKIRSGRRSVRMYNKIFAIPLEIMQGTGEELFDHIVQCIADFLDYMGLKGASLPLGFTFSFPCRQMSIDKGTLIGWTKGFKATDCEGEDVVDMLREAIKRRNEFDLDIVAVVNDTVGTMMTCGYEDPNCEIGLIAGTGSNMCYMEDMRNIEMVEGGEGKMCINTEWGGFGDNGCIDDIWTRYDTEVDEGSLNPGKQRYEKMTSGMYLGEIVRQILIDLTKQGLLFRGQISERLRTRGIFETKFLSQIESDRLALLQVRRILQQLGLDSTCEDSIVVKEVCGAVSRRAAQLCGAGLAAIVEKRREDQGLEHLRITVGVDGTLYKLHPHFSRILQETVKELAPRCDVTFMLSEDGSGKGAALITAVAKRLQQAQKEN

[7] = reduced cellular PGC1a acetyl-lysine signal – cell-based, cherry-picked samples, dose response (AID 720514); format: functional;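 further: potency may reflect raised or lowered acetylation signal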
Trypsin = Trypsin (Sus scrofa, UniProt P00761); test: trypsin protease activity blockade – biochemical, quenched peptide fluorescence, cherry-pick, selectivity assay for Rce1 protease inhibitor project, dose response (AID 488789)
Sequence of Trypsin (P00761 whole entry): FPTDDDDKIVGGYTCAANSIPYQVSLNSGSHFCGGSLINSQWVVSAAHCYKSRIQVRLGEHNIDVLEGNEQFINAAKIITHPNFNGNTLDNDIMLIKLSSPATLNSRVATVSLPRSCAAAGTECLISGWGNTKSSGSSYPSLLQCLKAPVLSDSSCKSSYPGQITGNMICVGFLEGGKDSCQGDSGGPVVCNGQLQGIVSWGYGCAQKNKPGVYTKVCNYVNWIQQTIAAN

[8] = molecular target: T3, Mannose-6-phosphate isomerase (Homo sapiens, UniProt P34949); test: MPI inhibition at elevated mannose 6-phosphate – biochemical, fluorescence intensity, high mannose 6-phosphate, primary screen (AID 1220)
T3 sequence (P34949 whole entry): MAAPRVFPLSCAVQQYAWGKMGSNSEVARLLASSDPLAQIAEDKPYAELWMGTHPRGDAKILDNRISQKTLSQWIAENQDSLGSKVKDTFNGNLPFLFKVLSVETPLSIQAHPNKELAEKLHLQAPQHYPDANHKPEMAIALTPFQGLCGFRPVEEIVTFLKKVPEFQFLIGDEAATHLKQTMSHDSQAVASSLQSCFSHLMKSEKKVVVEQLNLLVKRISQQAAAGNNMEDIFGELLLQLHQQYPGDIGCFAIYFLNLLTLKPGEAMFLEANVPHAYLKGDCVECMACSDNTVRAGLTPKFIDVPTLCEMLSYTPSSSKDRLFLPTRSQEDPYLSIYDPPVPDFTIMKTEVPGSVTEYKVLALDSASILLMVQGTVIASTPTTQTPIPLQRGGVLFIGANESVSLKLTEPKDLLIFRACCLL

BJ [9] = test: BJ-TERT fibroblast viability loss – cell-based, RAS-independent, luminescence, dose response (AID 1933); format: functional; details: Homo sapiens
BJ [10] = test: cells; format: functional, cell-based; details: Homo sapiens
[11] = Trypanosoma cruzi growth suppression in host cells – NIH3T3 host cells, beta-gal luminescence, confirmation (AID 2044); format: functional, cell-based;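 further: intracellular parasites grown in NIH/3T3 mouse fibroblasts as host cells; luminescent beta-galactosidase reporter signal from transgenic T. cruzi replicating inside host cells; inhibitors lower the luminescence signal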
[12] = NIH3T3 cell viability loss – ATP luminescence, mouse fibroblasts, counter-screen, dose response (AID 2010); format: functional, cell-based;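 further: cells exposed to compound for about 90 hours before reading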
BJ [13] = test: BJ-TERT-LT-ST fibroblast viability loss – cell-based, RAS-independent, luminescence, dose response (AID 1935); format: functional; details: Homo sapiens;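 further: BJ fibroblasts immortalized with TERT plus LT and ST oncogenes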
[14] = DRD fibroblast viability loss – cell-based, non-viral oncogenic, luminescence, dose response (AID 1934); format: functional; details: Homo sapiens
[15] = HEK-293T viability loss after treatment – luminescence, T-cell screen hits, cytotoxicity control for TCR NF-kB inhibitor project, dose response (AID 489026); format: functional, cell-based;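 further: cells exposed to compound about 14 hours before the viability readout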
[16] = HEK-293T cell viability reduction – luminescence, B-cell screen hits, cytotoxicity control for BCR NF-kB inhibitor project, dose response (AID 489021); format: functional, cell-based;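 further: HEK-293T cells carrying an NF-kB luciferase reporter; cells exposed to compound for about 14 hours before viability readout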
[17] = molecular target: T4, Heat shock factor protein 1 (Mus musculus, UniProt P38532); test: decrease of HSF1-responsive luciferase luminescence – cell-based, NIH3T3, dose retest, confirmation (AID 2382); format: functional;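 further: NIH3T3 fibroblasts with HSF1-driven luciferase reporter stressed by proteasome inhibitor MG132; luminescence from HSF1-driven luciferase expression after 8 hours of MG132 stress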
T4 sequence (P38532 whole entry): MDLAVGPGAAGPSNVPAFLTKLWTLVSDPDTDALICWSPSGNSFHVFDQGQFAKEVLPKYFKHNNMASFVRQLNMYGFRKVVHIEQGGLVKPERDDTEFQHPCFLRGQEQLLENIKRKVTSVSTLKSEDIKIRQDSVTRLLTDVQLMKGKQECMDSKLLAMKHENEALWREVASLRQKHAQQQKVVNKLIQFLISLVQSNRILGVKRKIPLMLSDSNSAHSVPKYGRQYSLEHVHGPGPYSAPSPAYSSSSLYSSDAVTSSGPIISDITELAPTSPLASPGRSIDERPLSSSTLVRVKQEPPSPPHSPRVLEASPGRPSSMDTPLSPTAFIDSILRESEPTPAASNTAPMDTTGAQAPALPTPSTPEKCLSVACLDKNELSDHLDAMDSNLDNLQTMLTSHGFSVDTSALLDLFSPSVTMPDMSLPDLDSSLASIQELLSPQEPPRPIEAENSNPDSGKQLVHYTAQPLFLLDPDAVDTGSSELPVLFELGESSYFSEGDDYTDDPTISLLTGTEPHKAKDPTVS

[18] = molecular target: T5, Short transient receptor potential channel 4 (Mus musculus, UniProt Q9QUQ5); test: block of DAMGO-driven TRPC4 calcium entry – cell-based, HEK293 TRPC4/mu-opioid, Fluo-4 calcium, dose response (AID 434942); format: functional;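 further: potency of inhibitors blocking the TRPC4 calcium response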
T5 sequence (Q9QUQ5 whole entry): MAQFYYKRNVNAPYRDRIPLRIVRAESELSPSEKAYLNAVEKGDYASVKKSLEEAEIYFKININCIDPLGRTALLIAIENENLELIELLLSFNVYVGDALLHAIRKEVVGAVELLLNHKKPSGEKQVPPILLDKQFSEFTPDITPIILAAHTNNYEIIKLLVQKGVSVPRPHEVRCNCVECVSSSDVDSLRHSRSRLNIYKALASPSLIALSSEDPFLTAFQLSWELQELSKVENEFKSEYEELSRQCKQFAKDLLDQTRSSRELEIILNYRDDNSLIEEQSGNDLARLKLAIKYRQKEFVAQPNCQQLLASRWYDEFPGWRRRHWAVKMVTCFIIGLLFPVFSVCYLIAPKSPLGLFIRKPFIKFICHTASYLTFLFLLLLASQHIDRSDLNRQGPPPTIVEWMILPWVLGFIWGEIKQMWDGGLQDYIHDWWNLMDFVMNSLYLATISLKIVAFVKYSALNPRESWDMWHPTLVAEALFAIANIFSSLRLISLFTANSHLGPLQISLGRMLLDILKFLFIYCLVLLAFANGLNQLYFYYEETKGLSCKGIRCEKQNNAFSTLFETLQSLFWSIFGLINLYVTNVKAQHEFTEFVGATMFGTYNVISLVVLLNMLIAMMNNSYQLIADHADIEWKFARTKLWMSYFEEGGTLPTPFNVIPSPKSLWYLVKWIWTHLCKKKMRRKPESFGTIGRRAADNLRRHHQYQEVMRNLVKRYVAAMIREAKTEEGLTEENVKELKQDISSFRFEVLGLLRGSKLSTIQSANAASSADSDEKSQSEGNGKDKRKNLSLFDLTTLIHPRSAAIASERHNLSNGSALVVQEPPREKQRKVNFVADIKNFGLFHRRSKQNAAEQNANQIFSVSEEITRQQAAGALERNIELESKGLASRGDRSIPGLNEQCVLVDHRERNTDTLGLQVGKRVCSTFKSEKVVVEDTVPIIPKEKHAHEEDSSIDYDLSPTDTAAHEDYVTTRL

[19] = molecular target: T5, Short transient receptor potential channel 4; test: calcium entry via TRPC4 opening agents – cell-based, HEK293 TRPC4/mu-opioid, Fluo-4 calcium, dose response (AID 434937); format: functional

Sequence of Eukaryotic translation initiation factor 4E (P63073 whole entry, the tested form may be a part): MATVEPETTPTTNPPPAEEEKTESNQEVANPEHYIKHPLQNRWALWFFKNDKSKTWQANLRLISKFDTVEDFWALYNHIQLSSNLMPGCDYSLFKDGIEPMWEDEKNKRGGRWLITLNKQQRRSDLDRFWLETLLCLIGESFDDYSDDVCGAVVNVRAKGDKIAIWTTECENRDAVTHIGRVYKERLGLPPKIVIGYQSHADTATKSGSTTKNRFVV

## CCSc1ccc2nnc(-c3cccc(F)c3)n2n1
[1]
  IC50: > 64 µM (inactive)

## CN(Cc1ccccc1)C(=O)COC(=O)/C=C/c1ccco1
[1]
  IC50: 50 µM (inactive)
[2]
  IC50: 12.5 µM (active)

## CC(=O)c1sc2ccccc2c1OC(=O)c1ccco1
Prothrombin
  IC50: 2.17 µM (active)

## O=C(Nc1ccc(F)nc1)Nc1cccc(F)c1
[3]
  EC50: 5.76 µM (active)

## CC(C)(C)c1[nH]nc2c1C(c1ccc(OC(=O)c3ccco3)cc1)C(C#N)=C(N)O2 (stereo unspecified)
[1]
  IC50: > 64 µM (inactive)
Cytochrome P450 2D6
  AC50: 15.8 µM (inconclusive)

## CN1CCC(NCCC(c2ccc(F)cc2)c2ccc(Cl)cc2)CC1 (stereo unspecified)
[4]
  IC50: 5.34 µM (active)

## COc1cccc(-c2nnc(SCC(=O)Nc3ccc4c(c3)OCCO4)n2Cc2ccco2)c1
Prothrombin
  IC50: > 50 µM (not active)

## CCCCCCCCCCCCCCCCNc1ccc(C(=O)O)cc1 [CETABEN]
[5]
  IC50: > 10 µM (inactive)
[6]
  IC50: > 10 µM (inactive)

## COc1ccc(OC)c2nc(O)c(CCNC(=O)c3cc4ccccc4o3)cc12
Hexokinase HKDC1
  IC50: 20.4 µM (inactive)

## COc1cccc(-n2c(Cc3cc(O)nc(O)n3)nnc2SCc2cccc(C(F)(F)F)c2)c1
[7]
  AC50: 35.1 µM (active)

## O=C(NC1CC1)c1ccc2c(c1)N(Cc1ccccc1)CCS2
Trypsin
  AC50: 6.54 µM (active)

## Cc1cccc(NCc2ccc(O)c3ncccc23)c1
[8]
  IC50: > 50 µM (not active)

## CC(=O)O[C@@]12CO[C@@H]1C[C@@H](O)[C@@]1(C)C(=O)[C@H](O)C3=C(C)[C@@H](OC(=O)[C@H](O)[C@@H](NC(=O)c4ccccc4)c4ccccc4)C[C@@](O)([C@@H](OC(=O)c4ccccc4)C12)C3(C)C (stereo partly specified)
BJ [9]
  EC50: 0.645 µM (active)
BJ [10]
  EC50: 44.8 µM (inconclusive)
[11]
  EC50: < 0.1 µM (active)
[4]
  IC50: 0.157 µM (active)
[12]
  EC50: 5.97 µM (active)
BJ [13]
  EC50: 0.434 µM (inconclusive)
[14]
  EC50: 0.567 µM (active)
[15]
  IC50: > 80 µM (inactive)
cells
  EC50: 0.022 µM (active)

## COc1ccc(C(=O)Nc2nnc(SCC(=O)Nc3ccc(NC(C)=O)cc3)s2)c(OC)c1
[16]
  IC50: > 80 µM (inactive)

## O=C(NNC(=O)C12CC3CC(CC(C3)C1)C2)c1cccc(O)c1
[16]
  IC50: > 80 µM (inactive)

## Cc1ccc(/C=C2\SC(=S)N(CCCC(=O)Nc3cccnc3)C2=O)cc1
[17]
  EC50: 0.255 µM (active)
[16]
  IC50: > 80 µM (inactive)

## COC1=CC(=O)C(OC)=C(OC)C1=O
Hexokinase HKDC1
  IC50: 2.56 µM (active)

## Cc1ccccc1Nc1nc(NCc2ccco2)c2ccccc2n1
[11]
  EC50: < 0.1 µM (active)
[12]
  EC50: > 60 µM (not active)
[18]
  EC50: 1.06 µM (active)
[19]
  EC50: 5.96 µM (active)
cells
  EC50: 0.023 µM (active)

## O=C(Nc1cccnc1)Nc1ccc(F)c(Cl)c1
[3]
  EC50: 4.21 µM (active)

## O=C(COc1ccc(S(=O)(=O)Nc2ccccc2)cc1)N1CCOCC1
Prothrombin
  IC50: > 50 µM (not active)
